Reference: ChEMBL document CHEMBL4622990, “Synthesis and Antitumor Activity of C-7-Alkynylated and Arylated Pyrrolotriazine C-Ribonucleosides” (ACS Med Chem Lett, 2020)
Calls of active or inactive are those of the source. No cut-off for these calls is given here.

Experiments:
[1] = tested on: LN-229; assay: Antiproliferative activity against human LN229 cells assessed as reduction in cell viability incubated for 72 hrs by IncuCyte live-cell imaging assay; type: functional, cell-based; conditions: LN-229, 72 h
[2] = tested on: CAPAN-1; assay: Antiproliferative activity against human Capan1 cells assessed as reduction in cell viability incubated for 72 hrs by IncuCyte live-cell imaging assay; type: functional, cell-based; conditions: CAPAN-1, 72 h
[3] = tested on: HCT-116; assay: Antiproliferative activity against human HCT116 cells assessed as reduction in cell viability incubated for 72 hrs by IncuCyte live-cell imaging assay; type: functional, cell-based; conditions: HCT-116, 72 h
[4] = tested on: NCI-H460; assay: Antiproliferative activity against human NCI-H460 cells assessed as reduction in cell viability incubated for 72 hrs by IncuCyte live-cell imaging assay; type: functional, cell-based; conditions: NCI-H460, 72 h
[5] = Antiproliferative activity against human DND41 cells assessed as reduction in cell viability incubated for 72 hrs by IncuCyte live-cell imaging assay; type: functional, cell-based; conditions: DND41, 72 h
[6] = tested on: HL-60; assay: Antiproliferative activity against human HL60 cells assessed as reduction in cell viability incubated for 72 hrs by IncuCyte live-cell imaging assay; type: functional, cell-based; conditions: HL-60, 72 h
[7] = tested on: K562; assay: Antiproliferative activity against human K562 cells assessed as reduction in cell viability incubated for 72 hrs by IncuCyte live-cell imaging assay; type: functional, cell-based; conditions: K562, 72 h
[8] = tested on: Z-138; assay: Antiproliferative activity against human Z138 cells assessed as reduction in cell viability incubated for 72 hrs by IncuCyte live-cell imaging assay; type: functional, cell-based; conditions: Z-138, 72 h
[9] = molecular target: Tubulin (Homo sapiens) (UniProt P68371+Q9H4B7+P0DPH7+P68366+Q13509+Q71U36+P04350+Q3ZCM7+P07437+P68363+Q9BQE3+Q6PEY2+Q13885+Q9BVA1+Q9BUF5); assay: Inhibition of tubulin polymerization in human Hep2 cells at 100 uM after 3 hrs by DAPI-staining based fluorescence microscopic assay; type: cell-based; conditions: HEp-2
[10] = tested on: Salmon testes DNA; assay: Binding affinity to salmon sperm DNA assessed as DNA intercalation at 20 uM incubated for 20 mins by acridine orange orange dye based fluorescence polarization assay; type: nucleic-acid assay; conditions: Salmonidae
[11] = tested on: HEp-2; assay: Induction of DNA damage in human Hep2 cells assessed as gamma-H2AX positive cells at 100 uM after 24 hrs by DAPI staining based immunofluorescence analysis (reference value: 0.51%); type: functional
[12] = tested on: HEp-2; assay: Induction of DNA damage in human Hep2 cells assessed as gamma-H2AX positive cells at 10 uM after 24 hrs by DAPI staining based immunofluorescence analysis relative to control; type: functional
[13] = tested on: HEp-2; assay: Induction of DNA damage in human Hep2 cells assessed as gamma-H2AX positive cells at 1 uM after 24 hrs by DAPI staining based immunofluorescence analysis relative to control; type: functional
[14] = tested on: PBMC; assay: Induction of apoptosis in human PBMC assessed as caspase 3/7 activation at 0.0064 to 100 uM incubated for 72 hrs and measured at 3 hrs interval by IncuCyte Caspase 3/7 Green reagent based assay; type: cell-based
[15] = tested on: CAPAN-1; assay: Induction of apoptosis in human Capan1 cells assessed as increase in apoptotic cells incubated for 72 hrs and measured at 3 hrs interval by IncuCyte Caspase 3/7 Green reagent based assay; type: functional, cell-based
[16] = tested on: HEp-2; assay: Induction of DNA damage in human Hep2 cells assessed as increase in gamma-H2AX positive cells after 24 hrs by DAPI staining based immunofluorescence analysis; type: functional, cell-based
[17] = tested on: PBMC; assay: Induction of apoptosis in human PBMC assessed as caspase 3/7 activation incubated for 72 hrs and measured at 3 hrs interval by IncuCyte Caspase 3/7 Green reagent based assay; type: cell-based

| IC50 [3] | IC50 [4] | IC50 [6] | IC50 [7] | inhibition [9] | Activity [10] | Structure (SMILES) | IC50 [1] | IC50 [2] | IC50 [5] | IC50 [8] | Activity [11] | Activity [12] | Activity [13] | Activity [14] | Activity [15] | Activity [16] | IC50 [17] |
| --- | --- | --- | --- | --- | --- | --- | --- | --- | --- | --- | --- | --- | --- | --- | --- | --- | --- |
| 59.5 µM | 93.3 µM | 99.3 µM | 69.7 µM |  |  | Nc1ncnn2c([C@@H]3O[C@H](CO)[C@@H](O)[C@H]3O)cc(-c3ccc(F)cc3F)c12 | 43.5 µM | 50.9 µM | 68.2 µM | 59.1 µM |  |  |  |  |  |  |  |
| 45.2 µM | 35.6 µM | 37.3 µM | 66.4 µM |  |  | Nc1ncnn2c([C@@H]3O[C@H](CO)[C@@H](O)[C@H]3O)cc(-c3ccsc3)c12 | 57.7 µM | 56.2 µM | 85.4 µM | 43.5 µM |  |  |  |  |  |  |  |
| 0.007 µM | 0.004 µM | 0.05 µM | 0.009 µM |  |  | CC(=O)O[C@@]12CO[C@@H]1C[C@H](O)[C@@]1(C)C(=O)[C@H](O)C3=C(C)[C@@H](OC(=O)[C@H](O)[C@@H](NC(=O)OC(C)(C)C)c4ccccc4)C[C@@](O)([C@@H](OC(=O)c4ccccc4)[C@H]21)C3(C)C [DOCETAXEL ANHYDROUS] | 0.002 µM | 0.025 µM | 0.005 µM | 0.004 µM |  |  |  |  |  |  |  |
| 2.9 µM | 1.7 µM | 0.4 µM | 2.4 µM | Active | Active | CCCCC#Cc1cc([C@@H]2O[C@H](CO)[C@@H](O)[C@H]2O)n2ncnc(N)c12 | 1 µM | 1 µM | 0.4 µM | 0.2 µM | 1.57% | 0.35% | 0.31% | Non-Toxic | Active | Dose-dependent effect |  |
| 46.9 µM | 38.5 µM | > 100 µM | > 100 µM |  |  | Nc1ncnn2c([C@@H]3O[C@H](CO)[C@@H](O)[C@H]3O)cc(C#Cc3ccccc3)c12 | 88 µM | 37.7 µM | 62.6 µM | 41.4 µM |  |  |  |  |  |  |  |
| 42.5 µM | 55.5 µM | 68.3 µM | > 100 µM |  |  | Nc1ncnn2c([C@@H]3O[C@H](CO)[C@@H](O)[C@H]3O)cc(-c3ccc(F)cc3)c12 | 65.6 µM | 65.6 µM | 39.3 µM | > 100 µM |  |  |  |  |  |  |  |
| 0.05 µM | 0.08 µM | 0.04 µM | 0.04 µM | Active | Active | Nc1ncnn2c([C@@H]3O[C@H](CO)[C@@H](O)[C@H]3O)cc(C#CC3CC3)c12 | 0.03 µM | 0.02 µM | 0.04 µM | 0.02 µM | 16.22% | 5.2% | 3.22% |  | Active | Dose-dependent effect | 0.1 to 0.4 µM |
| 59.3 µM | 45.9 µM | 37.9 µM | 47.8 µM |  |  | Nc1ncnn2c([C@@H]3O[C@H](CO)[C@@H](O)[C@H]3O)cc(-c3ccc(Cl)cc3)c12 | 32.6 µM | 56.7 µM | 35.1 µM | 40.2 µM |  |  |  |  |  |  |  |
| 47.1 µM | 69.3 µM | > 100 µM | 76.4 µM |  |  | COc1ccc(-c2cc([C@@H]3O[C@H](CO)[C@@H](O)[C@H]3O)n3ncnc(N)c23)cc1 | 40.3 µM | 43.9 µM | 41.7 µM | 62.6 µM |  |  |  |  |  |  |  |
| > 100 µM | > 100 µM | > 100 µM | > 100 µM |  |  | Nc1ncnn2c([C@@H]3O[C@H](CO)[C@@H](O)[C@H]3O)cc(-c3ccccc3F)c12 | > 100 µM | > 100 µM | > 100 µM | 95.3 µM |  |  |  |  |  |  |  |
| > 100 µM | 79.4 µM | > 100 µM | > 100 µM |  |  | Nc1ncnn2c([C@@H]3O[C@H](CO)[C@@H](O)[C@H]3O)cc(C#Cc3ccc(F)cc3)c12 | > 100 µM | 55.4 µM | > 100 µM | 89 µM |  |  |  |  |  |  |  |
| > 100 µM | > 100 µM | > 100 µM | > 100 µM |  |  | Nc1ncnn2c([C@@H]3O[C@H](CO)[C@@H](O)[C@H]3O)cc(-c3ccccc3Cl)c12 | > 100 µM | 54.9 µM | 78.5 µM | 76.1 µM |  |  |  |  |  |  |  |
| > 100 µM | > 100 µM | 48.4 µM | > 100 µM |  |  | Cc1ccccc1-c1cc([C@@H]2O[C@H](CO)[C@@H](O)[C@H]2O)n2ncnc(N)c12 | > 100 µM | 97.5 µM | 94.1 µM | 66 µM |  |  |  |  |  |  |  |
| 0.2 µM | 0.4 µM | 0.2 µM | 1.1 µM | Active | Active | CCCC#Cc1cc([C@@H]2O[C@H](CO)[C@@H](O)[C@H]2O)n2ncnc(N)c12 | 0.04 µM | 0.02 µM | 0.08 µM | 0.02 µM | 9.38% | 0.82% | 1.14% |  |  | Dose-dependent effect | 0.05 to 11 µM |
| 82.6 µM | > 100 µM | > 100 µM | > 100 µM |  |  | Nc1ncnn2c([C@@H]3O[C@H](CO)[C@@H](O)[C@H]3O)cc(-c3ccccc3)c12 | 75.1 µM | 65.2 µM | > 100 µM | > 100 µM |  |  |  |  |  |  |  |
| 4.8 µM | 3.7 µM | 2 µM | 3.1 µM | Active | Active | Nc1ncnn2c([C@@H]3O[C@H](CO)[C@@H](O)[C@H]3O)cc(/C=C/c3ccccc3)c12 | 3.9 µM | 2.6 µM | 1.7 µM | 1.3 µM | 0.22% | 0% | 0.05% | Non-Toxic |  | Dose-dependent effect |  |
| 1.4 µM | 1.5 µM | 0.5 µM | 2.1 µM | Active | Active | Nc1ncnn2c([C@@H]3O[C@H](CO)[C@@H](O)[C@H]3O)cc(-c3ccoc3)c12 | 1 µM | 0.9 µM | 0.1 µM | 0.3 µM | 3.74% | 1.54% | 0.13% | Non-Toxic | Active | Dose-dependent effect |  |
| 65.5 µM | 26.6 µM | > 100 µM | > 100 µM |  |  | Nc1ncnn2c([C@@H]3O[C@H](CO)[C@@H](O)[C@H]3O)cc(C#Cc3cccs3)c12 | > 100 µM | 32 µM | 33.4 µM | 50.1 µM |  |  |  |  |  |  |  |
|  |  |  |  |  |  | COc1cc([C@@H]2c3cc4c(cc3[C@@H](O[C@@H]3O[C@@H]5CO[C@@H](C)O[C@H]5[C@H](O)[C@H]3O)[C@H]3COC(=O)[C@H]23)OCO4)cc(OC)c1O [ETOPOSIDE] |  |  |  |  | 89.31% | 89.89% | 1.66% |  |  |  |  |

| Structure (SMILES) | IC50 [3] | IC50 [4] | IC50 [6] | IC50 [7] | inhibition [9] | Activity [10] | IC50 [1] | IC50 [2] | IC50 [5] | IC50 [8] | Activity [11] | Activity [12] | Activity [13] | Activity [14] | Activity [15] | Activity [16] | IC50 [17] |
| --- | --- | --- | --- | --- | --- | --- | --- | --- | --- | --- | --- | --- | --- | --- | --- | --- | --- |
| CN[C@@H]1C[C@H]2O[C@@](C)([C@@H]1OC)n1c3ccccc3c3c4c(c5c6ccccc6n2c5c31)C(=O)NC4 [STAUROSPORINE] | 0.04 µM | 0.06 µM | 0.04 µM | 0.04 µM |  |  |  |  |  |  |  |  |  |  |  |  |  |
